# From paper PMC11992225, “Antibacterial compounds against non-growing and intracellular bacteria” (npj Antimicrobials and Resistance, 2025)
# Read-outs that look alike come from different tables or passages of the source.
# Key:
# E. coli CFT073 (UPEC) = assay: MIC, standard microdilution assay, growing UPEC; format: cell-based, Escherichia coli; details: E. coli; for MIC (μM) CA-MHB +PAβN: CA-MHB with 10 μg/ml efflux pump inhibitor PaβN
# Procedure: (§1) Minimal inhibitory concentrations (MICs) were determined using a standard microdilution assay protocol. CA-MHB medium buffered with 40 mM HEPES (pH 7.4) was used to determine the MICs for UPEC, P. aeruginosa, and S. aureus. […] MICs for UPEC were also determined in LPM buffered with 30 mM MES (pH 5.5). For S. flexneri, MICs were determined in tryptic soy broth (TSB). The assay was performed in triplicates.
# P. aeruginosa DSM1117 = assay: MIC, standard microdilution assay, growing P. aeruginosa; format: cell-based, Pseudomonas aeruginosa; details: Pseudomonas aeruginosa, DSM1117; P. aeruginosa; CA-MHB pH 7.4; read-out: MIC (μM) CA-MHB
# Procedure: as §1
# S. aureus DSM2569 = assay: MIC, standard microdilution assay, growing S. aureus; format: cell-based, Staphylococcus aureus; details: Staphylococcus aureus, DSM2569; S. aureus; CA-MHB pH 7.4; read-out: MIC (μM) CA-MHB
# Procedure: as §1
# S. flexneri 5a M90T = assay: MIC in tryptic soy broth, S. flexneri; format: cell-based, Shigella flexneri; details: Shigella flexneri, 5AM90T, read-out: MIC (μM) TSB
# Procedure: as §1
# [1] = system: non-growing S. aureus DSM2569; assay: Dose-dependent killing analysis (CFU spot-plating) of stationary-phase S. aureus;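 note: drug concentration in µM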; format: cell-based, Staphylococcus aureus; details: S. aureus, vs 9,097 before treatment
# Procedure: To determine the spectrum of activity of the compounds that were effective against non-growing UPEC, we further assessed their efficacy against the well-characterized Gram-negative and Gram-positive reference strains P. aeruginosa DSM1117 and S. aureus DSM2569, respectively. The cultures were grown and treated for 24 h in 1:4 CA-MHB (pH 7.4). […].
# For survival analysis, bacteria were cultivated as described for the dose–response dilution-regrowth assay. Assays with UPEC were conducted at the CBCS screening facility using 96-well plates with a 200 μl sample volume, and compounds were dispensed using the Echo® (Labcyte) system. P. aeruginosa and S. aureus samples were treated according to the protocol used for the dilution-regrowth experiments. Treated samples were serially diluted 10-fold in PBS, and 10 μl drops were spot-plated onto rectangular LB agar plates using either a Beckman NXP robot (for UPEC) or an Integra VIAFLO96 electronic pipette (for P. aeruginosa and S. aureus). The LB agar plates were incubated overnight at 37 °C and scanned. Colonies were counted at the spots of the lowest dilution where individual colonies could be accurately distinguished. Each colony was manually marked on a separate image layer using the GNU Image Manipulation Program, and counted using NIST’s Integrated Colony Enumerator (NICE 1.4) software. The experiments were performed in three biological replicates.
# [2] = system: intracellular S. flexneri 5a M90T in TC7 cells; assay: microbe, parasite or virus in culture; format: cell-based, Shigella flexneri; details: for IC50: Shigella flexneri, TC7, 14 h; for Fluorescence intensity (RFU), Mean, 0.0625 x MIC / Fluorescence intensity (RFU), Mean, 0.125 x MIC / Fluorescence intensity (RFU), Mean, 0.25 x MIC / Fluorescence intensity (RFU), Mean, 0.5 x MIC / Fluorescence intensity (RFU), Mean, 2 x MIC / Fluorescence intensity (RFU), Mean, MIC: TC7 cells infected with GFP-expressing S. flexneri, 14 h treatment
# Source text: Nonproliferating bacterial pathogens frequently inhabit intracellular environments, but establishing relevant infection models for high-throughput testing is challenging. Therefore, we firstly tested ability of the hit compounds to cross the eukaryotic cytoplasmic membrane barrier and inhibit growth of S. flexneri within the cytoplasm of the TC7 human colon adenocarcinoma cell line[59]. To this end, we developed a new, fluorescence-based method that enables real-time monitoring of growth of intracellular Shigella. We used S. flexneri 5a M90T strain producing the AfaE adhesin that enhances bacterial adhesion to epithelial cells and allows synchronization of invasion. The strain was further modified to constitutively express super-folder GFP (sfGFP), which enables monitoring bacterial growth by fluorescence measurement. The epithelial cells were grown to confluence and infected with bacteria at an MOI (multiplicity of infection) of 50. […] Following bacterial adhesion and invasion, the cells were incubated with varying concentrations of the hit compounds and intracellular bacterial growth was tracked by measuring green fluorescence.
# The cells were split using trypsin, seeded in 96-well plates for infection, and grown to confluence, corresponding to approximately 40,000 cells per well.
# A single colony of S. flexneri was inoculated into TSB supplemented with 50 μg/ml spectinomycin and incubated overnight at 37°C with agitation. The overnight culture was diluted 1:200 in fresh TSB, and the bacteria were grown at 37 °C until the OD600 reached 0.3–0.4, corresponding to approximately 2 × 10^7 CFU/ml. Bacteria were pelleted by centrifugation, washed twice with sterile PBS, and resuspended in infection solution (serum-free DMEM supplemented with 20 mM HEPES, pH 7.4). Just prior to infection, the medium was withdrawn, and the cells were washed twice with sterile PBS. The bacterial inoculum (MOI 50, 2 × 10^7 CFU/ml) was added to all wells except the no-infection control. The plates were incubated at room temperature for 15 min to allow bacterial adhesion, followed by a 1 h incubation at 37 °C with 5% CO2 to facilitate bacterial invasion.
# Twofold serial dilutions of the drugs were prepared in infection solution containing 50 μg/ml gentamicin in a 96-well plate. After the invasion period, the bacterial inoculum was removed, and the serial dilutions of the drugs were added to the wells, except for the no-drug control. […] […] The experiments were performed in triplicates on separate days.
# (§2) Statistical significance of the drug effects was assessed using a one-way ANOVA followed by Dunnett’s test, comparing each treatment to the drug-free control. Statistical significance of the differences in chemical characteristics between the hit compounds and the Prestwick library was assessed using a Mann–Whitney test. Statistical significance was set at P ≤ 0.05. A five-parameter logistic equation was used for asymmetric sigmoidal curve fitting and for EC50 and IC50 determination. The Venn diagram in Fig. 1F was prepared using BioVenn web application. Characteristics of the chemical and physical properties of Prestwick library compounds were obtained from Supplementary Table S1 from reference. Characteristics of the hit compounds not included in the Prestwick library were retrieved from the PubChem database.
# non-growing UPEC CFT073 = assay: Dilution-regrowth assay (screen, hit validation, dose-response) on stationary-phase UPEC; format: cell-based, Escherichia coli; details: at 0.5 µM
# Procedure: The cultures were incubated for 24 h in non-baffled Erlenmeyer flasks at 37 °C with shaking at 200 rpm.
# The high-throughput screening (HTS) procedure was based on the protocol by Hazan and colleagues[15] and conducted at the Chemical Biology Consortium Sweden (CBCS) screening facility. […] Each plate included eight wells with 200 nl of 10 mM gatifloxacin, finafloxacin, and kanamycin solutions, along with 8-wells containing 200 nl of DMSO as controls. After 24 h incubation,100 μl of the culture was dispensed into each well of the 384-well plates for screening at a final concentration of 20 μM. The plates were sealed with parafilm and incubated at 37 °C for 24 h in closed humidified boxes, with wet paper towels added to prevent evaporation. […] The plates were incubated at 37 °C for 6 h in humidified boxes, then OD600 was measured using a microplate reader.
# For hit validation, bacteria were cultivated, and the dilution-regrowth assay was conducted following the same protocol used in the primary screen. Hit compounds were dispensed into 384-well plates using the Echo® (Labcyte) system, with 200, 100, or 50 nl of a 10 mM solution in DMSO added per well, yielding final screening concentrations of 20, 10, and 5 μM, respectively. OD600 values of regrowing samples were normalized to the mean OD600 of the drug-free control. The testing was conducted in two replicates.
# For UPEC, dose–response analysis was conducted at the CBCS screening facility. Bacteria were cultivated, and the dilution-regrowth assay was performed according to the HTS protocol. Compounds were dispensed into 384-well plates using the Echo® (Labcyte) system, and regrowth was assessed by measuring OD600 after 6 h of incubation at 37 °C in humidified boxes. Three biological replicates were performed.
# as §2
# [3] = Escherichia coli, pH 7.4, 1:4 diluted CA-MHB, read-out: MIC (μM) 1:4 CA-MHB
# [4] = Escherichia coli, pH 7.4, CA-MHB, read-out: MIC (μM) CA-MHB
Compound,MIC (μM) CA-MHB +PAβN (E. coli CFT073 (UPEC); pH 7.4) [µM],MIC (E. coli CFT073 (UPEC); [3]) [µM],MIC (E. coli CFT073 (UPEC); [4]) [µM],MIC (P. aeruginosa DSM1117) [µM],MIC (S. aureus DSM2569) [µM],MIC (S. flexneri 5a M90T) [µM],IC50 [2] [µM],"Fluorescence intensity (RFU), Mean, 0.0625 x MIC [2] [RFU]","Fluorescence intensity (RFU), Mean, 0.125 x MIC [2] [RFU]","Fluorescence intensity (RFU), Mean, 0.25 x MIC [2] [RFU]","Fluorescence intensity (RFU), Mean, 0.5 x MIC [2] [RFU]","Fluorescence intensity (RFU), Mean, 2 x MIC [2] [RFU]","Fluorescence intensity (RFU), Mean, MIC [2] [RFU]",further results
CO[C@@H]1[C@@H](O[C@@H]2O[C@H](C)[C@@H](O[C@H]3C[C@@](C)(O)[C@@H](OC(=O)CC(C)C)[C@H](C)O3)[C@H](N(C)C)[C@H]2O)[C@@H](CC=O)C[C@@H](C)[C@@H](O)/C=C/C=C/C[C@@H](C)OC(=O)C[C@H]1OC(C)=O [Josamycin],40,80,80,> 160,2,128,34.3,8835.42,7817.11,5830.67,2645.69,1478.33,1710.25,average Δlog10(CFU/ml) (killing) ([1]; drug conc. 0.1): 0.030 log10(CFU/ml); average Δlog10(CFU/ml) (killing) ([1]; drug conc. 0.5): 0.110 log10(CFU/ml); average Δlog10(CFU/ml) (killing) ([1]; drug conc. 2.5): 0.195 log10(CFU/ml); average Δlog10(CFU/ml) (killing) ([1]; drug conc. 10): 0.084 log10(CFU/ml); MIC:IC50 ratio ([2]; S. flexneri MIC in TSB versus intracellular IC50): > 2
CCC(=O)O[C@@H]1CC(=O)O[C@H](C)C/C=C/C=C/[C@H](O)[C@H](C)C[C@H](CC=O)[C@H](O[C@@H]2O[C@H](C)[C@@H](O[C@H]3C[C@@](C)(O)[C@@H](OC(=O)CC)[C@H](C)O3)[C@H](N(C)C)[C@H]2O)[C@H]1OC [Midecamycin],160,160,> 160,> 160,2,128,91,9401.53,9631.81,8761.75,6972.36,1708.61,3717.14,"MIC (E. coli CFT073 (UPEC); pH 7.4, CA-MHB, read-out: MIC (μM) CA-MHB): >160 µM; MIC (E. coli CFT073 (UPEC); Escherichia coli, LPM pH 5.5, read-out: MIC): 160 µM; UPEC regrowth delay (non-growing UPEC CFT073): effectively delays UPEC regrowth"
